In ChEMBL document CHEMBL4425099, “Use of Osmotic Pumps to Establish the Pharmacokinetic-Pharmacodynamic Relationship and Define Desirable Human Performance Characteristics for Aggrecanase Inhibitors” (J Med Chem, 2016):
Activity calls are given as the source filed them. The calls are words filed in the database; no cut-off is given here.

Tests used:
[1] = AUC in Lewis rat at 10 mg/kg, po; format: ADME, organism-based; conditions: in vivo
[2] = Plasma concentration in Lewis rat model of MIA at 10 mg/kg, po bid administered post 3 days MIA induction measured after 4 hrs of last dosage on day 7; format: ADME, organism-based
[3] = Plasma concentration in Lewis rat model of MIA at 30 mg/kg, po bid administered post 3 days MIA induction measured after 4 hrs of last dosage on day 7; format: ADME, organism-based
[4] = Cmax in Lewis rat plasma at 10 mg/kg, po; format: ADME, organism-based; set-up: dose 10 mg/kg, route oral
[5] = Plasma concentration in Lewis rat at 10 mg/kg, po bid measured after 8 hrs; format: ADME, organism-based
[6] = tested on: Rattus norvegicus; experiment: Reduction in ADAMTS-4/ADAMTS-5 mediated aggrecan cleavage products in Lewis rat model of MIA assessed as aggrecanase-cleaved fragments at 30 mg/kg, po bid administered post 3 days MIA induction measured after 4 hrs of last dosage on day 7 by NITEGE sandwich ELISA; format: functional
[7] = tested on: Rattus norvegicus; experiment: Reduction in ADAMTS-4/ADAMTS-5 mediated aggrecan cleavage products in Lewis rat model of MIA assessed as aggrecanase-cleaved fragments at 30 mg/kg, po qd administered post 3 days MIA induction measured after 4 hrs of last dosage on day 7 by NITEGE sandwich ELISA; format: functional

| AUC [1] | concentration at 4 h [2] | concentration at 4 h [3] | Cmax [4] | concentration at 8 h [5] | Structure (SMILES) | inhibition [6] | inhibition [7] |
| --- | --- | --- | --- | --- | --- | --- | --- |
| 130 µM·h | 30 µM | 90 µM | 33 µM | 2200 nM | O=C1NC(=O)[C@](CNC(=O)c2cc3cc(Cl)ccc3o2)(c2nccs2)N1 | – | – |
| – | – | – | – | – | C[C@@]1(O)CCCN(S(=O)(=O)c2ccc(OCc3ccc(F)cc3Cl)cc2)[C@H]1C(=O)NO | inactive | inactive |
